Tests used:
ErbB4 = ErbB4 (Homo sapiens, UniProt Q15303); conditions: cited from earlier work; for Affinity and selectivity for ErbB4 versus EGFR: pan-ErbB inhibitors; for Inhibition of ErbB4 (affinity): ref. 77 for JNJ
podocytes = test: Podocytes treated with TGFβ and co-treated with ErbB4 inhibitor (qRT-PCR, immunofluorescence); type: cell-based, mouse; conditions: podocytes treated with TGFb plus inhibitor, 2 h
Protocol: FIG. 5A is a bar graph showing qRT-PCR based analysis of levels of various RNAs in podocytes cultured in normal glucose (5 mM) v/s treatment with HG (30 mM) for 2 h or 24 h (Notch-1). FIG. 5B is a bar graph showing qRT-PCR based analysis of levels of various RNAs in podocytes cultured in normal media or treated with TGFb in the absence or presence of ErbB4 inhibitor (JNJ) for 2 h. FIG. 5C provides representative immunofluorescence images showing podocytes cultured in normal media or treated with TGFb in the absence or presence of ErbB4 inhibitor (JNJ) for 2 h and stained for paxillin, synpo or ErbB4.

[1] = tested on: DN prone miR-146a KO animals; test: STZ-induced diabetic nephropathy in miR-146a KO animals, albuminuria; type: in vivo, mouse; conditions: miR-146a KO + STZ mice, 70 mg/kg I.P. daily from 4 weeks post-STZ
Protocol: We investigated the role of miR-146 in diabetic nephropathy (DN) using the miR-146a KO animals and a DN mouse model. Streptozotocin (STZ) treatment (125 mg/kg, two doses 3 days apart) induced similar levels of hyperglycemia in both WT and miR146a KO animals (FIG. 7).
To determine if inhibiting ErbB4 using ErbB4 erlotinib would be beneficial and protect animals from DN, we administered Erlotinib (70 mg/kg in saline/Kolliphor, Tween, I.P., daily) in DN prone miR-146a KO animals starting at 4 weeks post-STZ.

[2] = tested on: WT and miR-146a KO DN mice; test: TEM of kidney sections for podocyte foot process effacement after STZ; type: in vivo, mouse
Protocol: We also analyzed the kidney sections using transmission electron microscopy (TEM) to determine if erlotinib treatment provided protection of podocytes from foot process effacement. TEM was performed according to the standard protocols (Sever, S. et al. J Clin. Invest. 117, 2095-2104 (2007)).

Chain of ErbB4 (Q15303 26-1308): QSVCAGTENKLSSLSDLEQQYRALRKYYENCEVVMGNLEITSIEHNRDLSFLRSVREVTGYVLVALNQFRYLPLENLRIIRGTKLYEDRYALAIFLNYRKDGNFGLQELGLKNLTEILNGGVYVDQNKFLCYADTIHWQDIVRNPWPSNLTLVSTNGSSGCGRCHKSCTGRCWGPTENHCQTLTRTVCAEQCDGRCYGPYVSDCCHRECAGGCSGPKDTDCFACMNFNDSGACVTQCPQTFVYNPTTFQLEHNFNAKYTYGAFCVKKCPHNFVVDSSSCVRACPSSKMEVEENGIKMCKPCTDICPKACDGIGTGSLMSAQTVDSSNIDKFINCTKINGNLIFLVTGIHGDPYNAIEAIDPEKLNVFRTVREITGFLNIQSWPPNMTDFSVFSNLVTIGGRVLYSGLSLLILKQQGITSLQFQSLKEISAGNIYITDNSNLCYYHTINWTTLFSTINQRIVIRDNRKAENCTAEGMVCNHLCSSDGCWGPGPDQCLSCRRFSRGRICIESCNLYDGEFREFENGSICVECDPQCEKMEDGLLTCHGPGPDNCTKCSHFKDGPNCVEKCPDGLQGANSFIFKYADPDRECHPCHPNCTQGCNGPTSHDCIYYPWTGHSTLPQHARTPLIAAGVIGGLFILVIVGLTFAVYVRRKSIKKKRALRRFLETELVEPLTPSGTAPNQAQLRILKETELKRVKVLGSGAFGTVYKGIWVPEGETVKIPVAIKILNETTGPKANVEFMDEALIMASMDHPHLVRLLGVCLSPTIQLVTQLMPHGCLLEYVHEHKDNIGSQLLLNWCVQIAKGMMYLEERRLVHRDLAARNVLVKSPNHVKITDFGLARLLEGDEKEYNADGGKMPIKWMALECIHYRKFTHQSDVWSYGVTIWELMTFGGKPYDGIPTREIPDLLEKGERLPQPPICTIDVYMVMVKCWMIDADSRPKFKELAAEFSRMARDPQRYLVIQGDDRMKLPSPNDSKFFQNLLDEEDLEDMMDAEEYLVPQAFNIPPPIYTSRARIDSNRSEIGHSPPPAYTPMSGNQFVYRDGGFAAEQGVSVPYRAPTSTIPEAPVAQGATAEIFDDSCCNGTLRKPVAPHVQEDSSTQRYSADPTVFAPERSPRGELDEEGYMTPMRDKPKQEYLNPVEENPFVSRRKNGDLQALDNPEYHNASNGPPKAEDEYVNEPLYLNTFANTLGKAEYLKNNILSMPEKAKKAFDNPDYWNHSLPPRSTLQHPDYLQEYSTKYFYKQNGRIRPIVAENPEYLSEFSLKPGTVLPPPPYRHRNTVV

Row | Structure (SMILES) | Affinity and selectivity for ErbB4 versus EGFR (ErbB4) | Inhibition of ErbB4 (affinity) (ErbB4) | Reversal of deleterious expression changes induced by TGFβ (mRNA and protein level) (podocytes) | Proteinuria (albuminuria) [1] | Podocyte foot process effacement (TEM) ([2]; WT mice after STZ) | Podocyte foot process effacement (TEM) ([2]; miR-146a KO DN mice)
1 | CNc1cc2c(Nc3cccc(Br)c3)ncnc2cn1 [PD158780] | high affinity and selectivity for ErbB4 |  |  |  |  | 
2 | CS(=O)(=O)CCNCc1ccc(-c2ccc3ncnc(Nc4ccc(OCc5cccc(F)c5)c(Cl)c4)c3c2)o1 [Lapatinib] | much more effective against EGFR v/s ErbB4 | only weakly effective on ErbB4 | less effective |  |  | 
3 | Cl.Nc1ncnc(Nc2ccc(OCc3ccccc3)c(Cl)c2)c1/C=N/OCCN1CCOCC1 [JNJ28871063] | high affinity and selectivity for ErbB4 | nanomolar affinity | reversed the deleterious expression changes induced by TGFβ |  |  | 
4 | C#Cc1cccc(Nc2ncnc3cc(OCCOC)c(OCCOC)cc23)c1 [Erlotinib] | high affinity and selectivity for ErbB4 |  |  | significantly reduced proteinuria (albuminuria) | significantly reduced podocyte foot process effacement | significantly reduced podocyte foot process effacement

Reference: patent US20160304959A1, “COMPOSITIONS AND METHODS FOR TREATING DIABETIC NEPHROPATHY” (Rush University Medical Center, priority 2013, published 2016)
